The text below walks through data of ChEMBL document CHEMBL1140627, “Adaptive neuro-fuzzy inference system (ANFIS): a new approach to predictive modeling in QSAR applications: a study of neuro-fuzzy modeling of PCP-based NMDA receptor antagonists” (Bioorg Med Chem, 2007).

The target in this assay is Glutamate NMDA receptor. The assay is described as follows: Displacement of [3H]TCP from NMDA receptor in rat brain membrane. The format is cell membranes. (Loss of bound radioactivity is the signal in a displacement assay; it reports binding, not function.)

Structures are written as SMILES.

As a reminder, the Ki is the dissociation constant of the complex between target and ligand, obtained from inhibition or displacement. In turn, `NC1(c2ccc(F)cc2)CCCCC1` yielded a Ki of 5130 nM.

Turning to `NC1(c2cccc(O)c2)CCCCC1`, the Ki was determined as 225 nM.

With `c1ccc(C2(N3CCCCC3)CCCCC2)cc1` [PHENCYCLIDINE], the Ki came to 70 nM.
